Data taken from a melting point compilation (Tetko et al.; mined from patent text by program, amines drawn as free bases though some values may be those of a salt).

SMILES | melting point
CC(=O)N1CCN(Cc2cnc(-c3cc4cccc(N(C)S(=O)(=O)c5cccs5)c4[nH]3)s2)CC1 | 177 to 178 °C
COc1cc(C=C2C(=O)CCc3ccccc32)c([N+](=O)[O-])cc1OC | 58 to 60 °C
CNC(=O)Nc1snc(C)c1[N+](=O)[O-] | 249 to 251 °C
CCCN(CCC)Cc1cnc(-c2ncn3c2CN(C)C(=O)c2sccc2-3)o1 | 142 to 144 °C
O=S(=O)(c1ccccc1)N1CCCC1c1ccc(C(F)(F)F)cc1 (racemic) | 95 °C
Oc1ccc(Nn2cccc2)c2ccccc12 | 83 to 84 °C
Cc1cccc2c1NC(=O)c1cscc1O2 | 194 to 195 °C
OC1C[C@H]2CN(C3=Nc4cc(Cl)ccc4Oc4ccccc43)CCN2C1 (stereo partly drawn) | 90 to 92 °C
O=C(O)Cn1c(=O)c(=O)[nH]c2ccc3ccc(-n4ccc(CN5CC=C(c6ccccc6)CC5)c4)cc3c21 | > 250 °C
Cn1cnc2cc(F)ccc2c1=O | 133 to 135 °C
Cc1c(C(=O)Nc2ccc(OCCCN3CCOCC3)c(C#N)c2)cnn1-c1ccc(C(F)(F)F)cc1 | 172 to 174 °C
ON=C1CN2[C@H]3CC[C@@H]2[C@@H]1[C@@H](c1ccc(Cl)c(Cl)c1)C3 | 45 to 52 °C
Fc1ccc2c(c1)[C@H]1N[C@@H](CNC(c3ccccc3)(c3ccccc3)c3ccccc3)C[C@@H]1c1ccccc1C2 | 58 to 60 °C
C[Si](C)(C)C#Cc1ccc2c(c1)C(c1ccccc1F)=NCc1c(C(=O)OCC(F)(F)F)ncn1-2 | 220 to 221 °C
C=CCNc1nc(C=O)cs1 | 106 to 107 °C
ClCCCc1cc2cccnc2[nH]1 | 75 °C
Cn1c(=O)c(C#N)c(N2CCN(C(=O)c3cccs3)CC2)c2cc(Cl)ccc21 | 262 °C
CC(C)(C)OC(=O)c1cn(-c2cccnc2)cn1 | 81 to 82 °C
COc1cc(Cc2cnc(NCCSCc3nc[nH]c3C)[nH]c2=O)ccn1 | 177 to 178 °C
CCCNC(=Nc1ccc(Cl)cc1)Nc1ncccc1OCc1c(F)cccc1F | 99 to 100 °C
Cc1ccc(S(=O)(=O)N2C(=O)c3cc4c(cc3[C@H]3[C@@H](C=O)[C@H](O[Si](C)(C)C(C)(C)C)[C@H]5OC(C)(C)O[C@H]5[C@@H]32)OCO4)cc1 | > 200 °C
CCOC(=O)C(=CNc1nonc1C)C(=O)c1cc(F)c(F)cc1F | 104 to 107 °C
N#CC1=Cc2cc(Br)ccc2OC1 | 132 to 133 °C
CC1(C)CCC(C)(C)c2nc3c(nc21)CCc1c(-c2ccc(C(=O)O)cc2)cn(Cc2cccnc2)c1-3 | 149 to 151 °C
Cc1c(C#N)ccc(Cl)c1Cl | 78 to 79 °C
COc1ccc(N2N=C(N)CC2c2ccccc2)cc1 (stereo not drawn) | 164 to 166 °C

SMILES | melting point
CC(C)(C)C(C)(C)Nc1nc(NC(C)(C)C(C)(C)C)nc(N2CC3CCC(CC3)C2)n1 | 282 to 284 °C
CCCCCC(=O)OCC(=O)C1C(C)CC2C3=C(C(O)CC21C)C1(C)C=CC(=O)C=C1C(F)C3 (stereo not drawn) | 155 °C
c1ccc2sc(SSN3CCOCC3)nc2c1 | 132 to 136 °C
CC(=O)Nc1ccc2nc(CN3CCCCC3)ccc2c1 | 182 to 184 °C
CC(=O)N1CC=C(c2cc(C)c(O)cc2C)CC1 | 220 °C
CN1CCN(C2CCCc3nc4ccccc4c(N)c32)CC1 (stereo not drawn) | 200 to 202 °C
NCCCP(=O)(O)C(F)F | 261 °C
COc1ccc2c(c1)c(=O)n1nc(C(N)=O)cc1n2C | > 300 °C
c1ccc(Sc2cc(Sc3ccccc3)ncn2)cc1 | 117 °C
Cn1cc(-c2ccccc2)c(=S)c(-c2ccccc2)c1 | 168 to 171 °C
CCOC(=O)CCC(C#N)(c1ccc(C(F)(F)F)cc1)N1CCOCC1 (stereo not drawn) | 96 to 97 °C
C=CCOc1ccc(C(=O)CC(=O)C(C)(C)C)cc1OC | 40 °C
O=S(=O)(Cl)Oc1cccc2cnccc12 | 152 to 155 °C
CC(=O)N1CCCC(C2=C(C#N)C(c3cccc4nonc34)c3c[nH]nc3N2)C1 (stereo not drawn) | 219 °C
CN1CC(CCCl)Oc2ccc(Cl)cc2C1=S (stereo not drawn) | 102 to 104 °C
O=C(O)C1=Cc2cc(Cl)cnc2NC1C(F)(F)F (stereo not drawn) | 287 to 288 °C
N#Cc1nn(-c2c(Cl)cc(C(F)(F)F)cc2Cl)cc1C(=O)C1CC1 | 195 to 197 °C
CN(C)S(=O)(=O)c1ccccc1-c1ccc2c(c1)S(=O)(=O)NC(C1CCCCC1)N2 (stereo not drawn) | 290 to 300 °C
CCOC(=O)[C@@H]1CSCCCCCCCC(CSC(C)=O)C(=O)N1 (stereo partly drawn) | 193 to 196 °C
COc1ccc(C2CC(c3ccccc3)=NN2c2ccc(C(=O)O)cc2)cc1 (stereo not drawn) | 226 °C
O=C1Nc2ccc(Cl)cc2C1(NCCO)c1ccccc1Cl (stereo not drawn) | 198 to 200 °C
CC(C)n1cnc2c(Nc3cccc(Cl)c3)nc(Cl)nc21 | 128 to 129 °C
COc1ccc(CC2CCC3=C(C2)CC(C)C(=O)N3)cc1 (stereo not drawn) | 182 to 184 °C
COC(=O)c1ccccc1SCOc1ccc(Cl)cc1Cl | 122 to 124 °C
COCc1nc2ncccc2n1Cc1ccc(C(=O)N(C(C)C)C2CCCCC2)cc1OC | 117 to 118 °C
CC(CO)c1ccc(O)c(Cc2ccccc2O)c1 (stereo not drawn) | 86 to 89 °C

SMILES | melting point
CN1C(=O)CN(c2cccc(I)c2)NC1=O | 180 °C
CCCCOC1c2ccccc2C(=O)N(CC2CC2)C1(/C=C/C(=O)O)CNC(=O)OC(C)(C)C (stereo not drawn) | 229 to 230 °C
CCC(NC(=O)OC)c1ccc(Cl)c2nc3n(c12)CCCN3c1c(Cl)cc(Cl)cc1Cl (stereo not drawn) | 231 to 233 °C
CCOC(=O)C1N=c2sccc2=CN1N (stereo not drawn) | 138 to 140 °C
CC(=O)NC(C)Cc1cc(C)c(C)cc1CC(=O)O (stereo not drawn) | 67 to 69 °C
Cc1ccc(C(=O)C=CN(C)C)o1 | 123 to 125 °C
OC(c1ccccc1)C(CN1CC=C(c2ccc(Cl)cc2)CC1)c1ccccc1 (stereo not drawn) | 135 to 137 °C
O=C(Nc1ccc(S(=O)(=O)c2ccccn2)cc1)C(O)(C(F)F)C(F)F | 200 to 202 °C
O=c1[nH]c2nc(Cl)nc(Cl)c2s1 | 191 to 192 °C
CCC1(CCCCN2CCN(c3ccccc3Cl)CC2)C(=O)Nc2ccccc21 (stereo not drawn) | 145 to 148 °C
CCCC(=O)C(Cc1ccc(-c2ccccc2-c2nnn[nH]2)cc1)C(=O)OCC (stereo not drawn) | 65 °C
NC(=O)c1[nH]c2cccnc2c1Sc1ccc(Cl)cc1Cl | 266 °C
CCCOc1ccc(C2=NN(C(=S)Nc3ccc(C(F)(F)F)cc3)CC2NCC(=O)OC)cc1 (stereo not drawn) | 167 to 169 °C
OCc1ccc(-c2ccc(-c3cn([C@H]4CN5CCC4CC5)nn3)cc2)s1 | 234 °C
CCC(=O)NCCc1ccc(OCc2ccccc2)c(OCc2ccccc2)c1CC | 159 to 160 °C
CCOC(=O)CCC1CCC(=O)N1 (stereo not drawn) | 60 to 61 °C
C#CCOC(=O)C1=C(N)NC(N)=C(C(=O)OCC#C)C1c1cccc([N+](=O)[O-])c1 | 170 °C
CCOC(=O)COc1cc(C)c(C)c2c1CC(Br)C2=O (stereo not drawn) | 71 to 73 °C
[N-]=[N+]=NCC(=O)Nc1ccccc1 | 83 °C
O=C(CCCCC1CCSS1)N1CCN(c2ccc([N+](=O)[O-])cc2)CC1 (stereo not drawn) | 97.6 to 98.5 °C
CCCCCCCCOc1cccc2c1OCO2 | 120 °C
CCCCCCSC(=O)CS(=O)(=O)Nc1c(C(C)C)cccc1C(C)C | 81 to 83 °C
Oc1cccc(CCc2nc(-c3ccccc3)c(-c3ccccc3)s2)c1 | 166 to 168 °C
CN(C1CCC(=O)CC1)S(=O)(=O)c1ccc(Nc2nccc(Nc3ccc(F)cc3)n2)cc1 | 203 °C
CN(C)C1(Cc2ccccc2)CC=C(c2[nH]c3ccccc3c2CCc2ccncc2)CC1 (stereo not drawn) | 154 to 157 °C
CCCCCCCCCCc1ccc2cc(SC)c(OC)cc2c1 | 49.5 to 50.4 °C

SMILES | melting point
COC(=O)c1ccccc1-c1nc2cc(C)ccc2o1 | 135 to 138 °C
CC1c2cc(F)ccc2-c2ccc(F)cc2N1C(=O)c1ccc(O)cc1 (stereo not drawn) | 138 to 140 °C
CCC(=O)CCCCCCC(=O)c1ccc(OCc2ccccc2)c(OCc2ccccc2)c1 | 67 to 68 °C
CC1OC(=O)C(C)C(NC(=O)OCc2ccccc2)C1C(=O)OCc1ccccc1 (stereo not drawn) | 110 to 112 °C
C=C=CN(C(=O)c1ccco1)c1c(C)cccc1C | 138 to 141 °C
O=C1CCc2c1cnn2Cc1ccccc1 | 92 to 93 °C
CCCN(CCCc1csc2ccc(F)cc12)C1COc2cccc(OC)c2C1 (stereo not drawn) | 78 °C
CCN(C(=O)N1CCN(c2cc(C)cc(C)c2)CC1)c1cc2ccccc2nc1OC | 84 to 86 °C
CNC(=O)C(C)CCn1c(COc2ccc(Cl)cc2)nc2c(C)cccc21 (stereo not drawn) | 168 °C
CCCCCC(CC(=O)Nc1cc(CCCNC(N)=O)ccc1C(C)(C)C)c1ccc(OC)cc1OC (stereo not drawn) | 125 °C
CCOC(=O)c1nc(/C=C/c2ccccc2)ns1 | 79 to 80 °C
CN(C1CCN(CCCC(F)(F)F)CC1)S(=O)(=O)c1ccc(Nc2nccc(Nc3ccc(F)c(F)c3)n2)cc1 | 192 °C
Clc1cccc(Nc2ncnc3[nH]nc(NCc4cccc5c4OCO5)c23)c1 | 214 to 215 °C
CC1(c2ccc(-c3ccc(F)cc3)cc2)CC(=O)NN1 (stereo not drawn) | 194 to 196 °C
CCCc1c(SCCCOc2ccc3c(=O)cc(C(=O)OCC)oc3c2CCC)ccc2c(=O)cc(C(=O)OCC)[nH]c12 | 168 to 170 °C
CCOCCOc1ccc(CCNC(=O)OC(C)(C)C)cc1 | 56 to 57 °C
CCCc1nn(C)c2c(=O)[nH]c(Cc3ccc(S(=O)(=O)O)cc3)nc12 | > 350 °C
Nc1ccccc1NC(=O)c1ccc(CNc2c(NCc3cccnc3)c(=O)c2=O)cc1 | 230 °C
COC(=O)Cc1cn(C)nc1OCc1ccc(OCc2csc(-c3ccccc3)n2)nc1 | 85 to 86 °C
COc1cc(-n2nc(C)[nH]c2=O)ccc1C | 164 to 168 °C
O=[N+]([O-])c1ccc(SCCc2c[nH]cn2)nc1 | 147 to 148 °C
COc1cc2ncnc(C3C(=O)N(C)c4ccccc43)c2cc1OC (stereo not drawn) | 233 to 235 °C
CCC(O)(C(N)=O)c1cc(C(F)(F)F)cc(C(F)(F)F)c1 (stereo not drawn) | 128 to 129 °C
NC(CC(=O)O)c1ccc2c(c1)OCO2 (stereo not drawn) | 223 to 224 °C
CSC1NC(=O)N(c2ccc(Cl)c(Cl)c2)C(=O)N1N=C(C)C (stereo not drawn) | 181 to 182 °C
